According to the NIST ThermoML archive (doi:10.1016/j.jct.2013.07.008):

How the values were obtained:
[1] = wn = mass fraction of the nth substance listed; settings: for surface tension liquid-gas: Maximal bubble pressure; for mass density: 101 kPa, Liquid, Buoyancy - hydrostatic balance
[2] = refractive index (Na D-line) (dimensionless); wn = mass fraction of the nth substance listed; settings: 101 kPa, Liquid, Standard Abbe refractometry

CC(O)C(=O)[O-].CCn1cc[n+](C)c1 [1-ethyl-3-methylimidazolium lactate] + O
Settings	mass density, [1] [kg/m3]	refractive index, [2]	surface tension liquid-gas, [1] [mN/m]
288.15 K, w2 = 0.0082	1197.3	1.5019	50.1
288.15 K, w2 = 0.0104	1198.4	1.5017	50.3
288.15 K, w2 = 0.0121	1199.4	1.5016	50.4
288.15 K, w2 = 0.0158	1201.3	1.5013	50.7
288.15 K, w2 = 0.0205	1203.8	1.5009	51
293.15 K, w2 = 0.0082	1194.1	1.5006	49.8
293.15 K, w2 = 0.0104	1195.2	1.5004	50
293.15 K, w2 = 0.0121	1196.1	1.5002	50.1
293.15 K, w2 = 0.0158	1198.1	1.4999	50.4
293.15 K, w2 = 0.0205	1200.5	1.4994	50.7
303.15 K, w2 = 0.0082	1187.6	1.498	49.1
303.15 K, w2 = 0.0104	1188.8	1.4978	49.3
303.15 K, w2 = 0.0121	1189.7	1.4977	49.4
303.15 K, w2 = 0.0158	1191.5	1.4974	49.7
303.15 K, w2 = 0.0205	1194	1.497	50.1
308.15 K, w2 = 0.0082	1184.3	1.4969	48.7
308.15 K, w2 = 0.0104	1185.5	1.4967	48.9
308.15 K, w2 = 0.0121	1186.4	1.4965	49
308.15 K, w2 = 0.0158	1188.3	1.4962	49.3
308.15 K, w2 = 0.0205	1190.7	1.4957	49.7
313.15 K, w2 = 0.0082	1180.9	1.4955	48.4
313.15 K, w2 = 0.0104	1182	1.4953	48.6
313.15 K, w2 = 0.0121	1182.9	1.4952	48.7
313.15 K, w2 = 0.0158	1184.9	1.4949	49
313.15 K, w2 = 0.0205	1187.5	1.4946	49.4
318.15 K, w2 = 0.0082	1177.6	1.4943	48.1
318.15 K, w2 = 0.0104	1178.8	1.4941	48.3
318.15 K, w2 = 0.0121	1179.7	1.494	48.4
318.15 K, w2 = 0.0158	1181.5	1.4937	48.7
318.15 K, w2 = 0.0205	1184	1.4933	49.1
323.15 K, w2 = 0.0082	1174.5	1.4931	47.7
323.15 K, w2 = 0.0104	1175.6	1.493	47.9
323.15 K, w2 = 0.0121	1176.4	1.4929	48
323.15 K, w2 = 0.0158	1178.2	1.4927	48.3
323.15 K, w2 = 0.0205	1180.6	1.4924	48.7
328.15 K, w2 = 0.0082	1171.3	1.4919	47.3
328.15 K, w2 = 0.0104	1172.5	1.4917	47.5
328.15 K, w2 = 0.0121	1173.4	1.4915	47.6
328.15 K, w2 = 0.0158	1175.3	1.4912	47.9
328.15 K, w2 = 0.0205	1177.7	1.4908	48.3
333.15 K, w2 = 0.0082	1168	1.4906	47
333.15 K, w2 = 0.0104	1169.1	1.4904	47.2
333.15 K, w2 = 0.0121	1170	1.4903	47.3
333.15 K, w2 = 0.0158	1172	1.49	47.6
333.15 K, w2 = 0.0205	1174.5	1.4896	48

CC(O)C(=O)[O-].CCCCCn1cc[n+](C)c1 [1-pentyl-3-methylimidazolium lactate] + O
Settings	mass density, [1] [kg/m3]	refractive index, [2]	surface tension liquid-gas, [1] [mN/m]
288.15 K, w2 = 0.0081	–	1.4933	–
288.15 K, w2 = 0.0086	1116.6	–	43.7
288.15 K, w2 = 0.0102	–	1.4931	–
288.15 K, w2 = 0.0106	1117.4	–	43.8
288.15 K, w2 = 0.0129	1118.6	1.4929	44
288.15 K, w2 = 0.0153	–	1.4927	–
288.15 K, w2 = 0.0163	1120.3	–	44.3
288.15 K, w2 = 0.0199	–	1.4923	–
288.15 K, w2 = 0.021	1122.4	–	44.6
293.15 K, w2 = 0.0081	–	1.492	–
293.15 K, w2 = 0.0086	1113.1	–	43.3
293.15 K, w2 = 0.0102	–	1.4918	–
293.15 K, w2 = 0.0106	1113.9	–	43.4
293.15 K, w2 = 0.0129	1115.2	1.4916	43.6
293.15 K, w2 = 0.0153	–	1.4913	–
293.15 K, w2 = 0.0163	1116.8	–	43.9
293.15 K, w2 = 0.0199	–	1.4909	–
293.15 K, w2 = 0.021	1119	–	44.2
303.15 K, w2 = 0.0081	–	1.4894	–
303.15 K, w2 = 0.0086	1106.8	–	42.6
303.15 K, w2 = 0.0102	–	1.4892	–
303.15 K, w2 = 0.0106	1107.6	–	42.7
303.15 K, w2 = 0.0129	1108.8	1.489	42.9
303.15 K, w2 = 0.0153	–	1.4888	–
303.15 K, w2 = 0.0163	1110.5	–	43.2
303.15 K, w2 = 0.0199	–	1.4884	–
303.15 K, w2 = 0.021	1112.7	–	43.5
308.15 K, w2 = 0.0081	–	1.4883	–
308.15 K, w2 = 0.0086	1103.6	–	42.2
308.15 K, w2 = 0.0102	–	1.4881	–
308.15 K, w2 = 0.0106	1104.3	–	42.3
308.15 K, w2 = 0.0129	1105.6	1.4879	42.5
308.15 K, w2 = 0.0153	–	1.4876	–
308.15 K, w2 = 0.0163	1107.3	–	42.8
308.15 K, w2 = 0.0199	–	1.4872	–
308.15 K, w2 = 0.021	1109.5	–	43.2
313.15 K, w2 = 0.0081	–	1.4869	–
313.15 K, w2 = 0.0086	1099.9	–	41.9
313.15 K, w2 = 0.0102	–	1.4867	–
313.15 K, w2 = 0.0106	1100.7	–	42
313.15 K, w2 = 0.0129	1102.1	1.4865	42.2
313.15 K, w2 = 0.0153	–	1.4863	–
313.15 K, w2 = 0.0163	1104	–	42.5
313.15 K, w2 = 0.0199	–	1.486	–
313.15 K, w2 = 0.021	1106.4	–	42.9
318.15 K, w2 = 0.0081	–	1.4857	–
318.15 K, w2 = 0.0086	1097.1	–	41.6
318.15 K, w2 = 0.0102	–	1.4855	–
318.15 K, w2 = 0.0106	1097.8	–	41.8
318.15 K, w2 = 0.0129	1099.1	1.4853	41.9
318.15 K, w2 = 0.0153	–	1.4851	–
318.15 K, w2 = 0.0163	1100.8	–	42.2
318.15 K, w2 = 0.0199	–	1.4847	–
318.15 K, w2 = 0.021	1103	–	42.6
323.15 K, w2 = 0.0081	–	1.4845	–
323.15 K, w2 = 0.0086	1093.9	–	41.2
323.15 K, w2 = 0.0102	–	1.4844	–
323.15 K, w2 = 0.0106	1094.6	–	41.4
323.15 K, w2 = 0.0129	1095.8	1.4842	41.5
323.15 K, w2 = 0.0153	–	1.4841	–
323.15 K, w2 = 0.0163	1097.5	–	41.8
323.15 K, w2 = 0.0199	–	1.4838	–
323.15 K, w2 = 0.021	1099.6	–	42.2
328.15 K, w2 = 0.0081	–	1.4833	–
328.15 K, w2 = 0.0086	1090.5	–	40.8
328.15 K, w2 = 0.0102	–	1.4831	–
328.15 K, w2 = 0.0106	1091.2	–	41
328.15 K, w2 = 0.0129	1092.5	1.4829	41.1
328.15 K, w2 = 0.0153	–	1.4826	–
328.15 K, w2 = 0.0163	1094.1	–	41.4
328.15 K, w2 = 0.0199	–	1.4822	–
328.15 K, w2 = 0.021	1096.4	–	41.8
333.15 K, w2 = 0.0081	–	1.482	–
333.15 K, w2 = 0.0086	1087.4	–	40.5
333.15 K, w2 = 0.0102	–	1.4818	–
333.15 K, w2 = 0.0106	1088.1	–	40.7
333.15 K, w2 = 0.0129	1089.3	1.4816	40.8
333.15 K, w2 = 0.0153	–	1.4814	–
333.15 K, w2 = 0.0163	1091	–	41.1
333.15 K, w2 = 0.0199	–	1.481	–
333.15 K, w2 = 0.021	1093.2	–	41.5
